{"source": "ChEMBL document CHEMBL5678810", "key": {"[1]": {"target": "Platelet-derived growth factor receptor alpha (Homo sapiens) (UniProt P16234)", "assay": "Inhibition of T7 bacteriophage fused human PDGFRA at 10 uM by KINOMEscan analysis relative to control"}, "[2]": {"system": "Epidermal growth factor receptor (Homo sapiens), P00533 [L858R]", "sequence (P00533 whole entry L858R, the tested form may be a part)": "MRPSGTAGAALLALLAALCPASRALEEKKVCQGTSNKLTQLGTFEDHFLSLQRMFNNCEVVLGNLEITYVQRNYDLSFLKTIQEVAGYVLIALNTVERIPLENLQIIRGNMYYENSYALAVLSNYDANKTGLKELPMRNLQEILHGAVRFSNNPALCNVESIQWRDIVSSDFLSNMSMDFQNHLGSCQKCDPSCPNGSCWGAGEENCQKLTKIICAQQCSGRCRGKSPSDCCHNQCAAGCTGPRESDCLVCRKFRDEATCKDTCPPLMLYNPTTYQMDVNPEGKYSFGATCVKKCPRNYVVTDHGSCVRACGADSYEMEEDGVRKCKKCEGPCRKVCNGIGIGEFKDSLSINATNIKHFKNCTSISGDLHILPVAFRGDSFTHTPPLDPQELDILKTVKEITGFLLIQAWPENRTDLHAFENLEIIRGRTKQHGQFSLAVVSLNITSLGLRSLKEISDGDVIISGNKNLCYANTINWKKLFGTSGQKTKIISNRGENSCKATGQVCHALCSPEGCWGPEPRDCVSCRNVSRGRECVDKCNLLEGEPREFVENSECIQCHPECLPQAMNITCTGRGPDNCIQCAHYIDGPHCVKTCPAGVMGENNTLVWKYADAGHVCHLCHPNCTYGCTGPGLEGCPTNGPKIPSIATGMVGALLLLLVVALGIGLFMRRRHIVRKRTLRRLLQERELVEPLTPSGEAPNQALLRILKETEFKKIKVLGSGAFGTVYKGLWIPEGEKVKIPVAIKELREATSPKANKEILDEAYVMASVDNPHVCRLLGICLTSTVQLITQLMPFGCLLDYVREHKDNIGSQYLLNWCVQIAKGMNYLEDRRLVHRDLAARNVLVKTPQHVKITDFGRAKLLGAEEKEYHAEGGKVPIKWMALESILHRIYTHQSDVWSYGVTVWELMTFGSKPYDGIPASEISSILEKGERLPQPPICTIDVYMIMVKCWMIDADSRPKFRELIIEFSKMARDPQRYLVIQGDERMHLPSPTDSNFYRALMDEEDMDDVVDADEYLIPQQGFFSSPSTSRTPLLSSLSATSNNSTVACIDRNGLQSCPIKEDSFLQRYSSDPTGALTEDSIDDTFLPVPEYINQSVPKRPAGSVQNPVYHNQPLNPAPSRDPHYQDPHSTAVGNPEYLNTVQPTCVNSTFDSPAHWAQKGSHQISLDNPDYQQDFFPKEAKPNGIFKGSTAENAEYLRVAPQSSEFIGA", "assay": "Inhibition of T7 bacteriophage fused human EGFR L858R mutant at 10 uM by KINOMEscan analysis relative to control; values are per cent of control"}, "[3]": {"target": "Mitogen-activated protein kinase 10 (Homo sapiens) (UniProt P53779)", "assay": "Inhibition of T7 bacteriophage fused human JNK3 at 10 uM by KINOMEscan analysis relative to control; values are per cent of control"}, "[4]": {"target": "Cyclin-dependent kinase 5 (Homo sapiens) (UniProt Q00535)", "assay": "Inhibition of T7 bacteriophage fused human CDK5 at 10 uM by KINOMEscan analysis relative to control"}, "[5]": {"system": "Tyrosine-protein kinase ABL1 (Homo sapiens), P00519 [Y253F]", "assay": "Inhibition of T7 bacteriophage fused human phosphorylated ABL1 Y253F mutant at 10 uM by KINOMEscan analysis relative to control"}, "[6]": {"target": "Tyrosine-protein kinase HCK (Homo sapiens) (UniProt P08631)", "assay": "Inhibition of T7 bacteriophage fused human HCK at 10 uM by KINOMEscan analysis relative to control"}, "[7]": {"target": "Dual specificity protein kinase CLK4 (Homo sapiens) (UniProt Q9HAZ1)", "assay": "Inhibition of T7 bacteriophage fused human CLK4 at 10 uM by KINOMEscan analysis relative to control"}, "[8]": {"target": "Homeodomain-interacting protein kinase 2 (Homo sapiens) (UniProt Q9H2X6)", "assay": "Inhibition of T7 bacteriophage fused human HIPK2 at 10 uM by KINOMEscan analysis relative to control"}, "[9]": {"target": "Serine/threonine-protein kinase tousled-like 1 (Homo sapiens) (UniProt Q9UKI8)", "assay": "Inhibition of T7 bacteriophage fused human TLK1 at 10 uM by KINOMEscan analysis relative to control"}, "[10]": {"target": "Serine/threonine-protein kinase PLK1 (Homo sapiens) (UniProt P53350)", "assay": "Inhibition of T7 bacteriophage fused human PLK1 at 10 uM by KINOMEscan analysis relative to control"}, "[11]": {"target": "Serine/threonine-protein kinase 24 (Homo sapiens) (UniProt Q9Y6E0)", "assay": "Inhibition of T7 bacteriophage fused human MST3 at 10 uM by KINOMEscan analysis relative to control; values are per cent of control"}, "[12]": {"target": "Bone morphogenetic protein receptor type-1A (Homo sapiens) (UniProt P36894)", "assay": "Inhibition of T7 bacteriophage fused human BMPR1A at 10 uM by KINOMEscan analysis relative to control"}, "[13]": {"system": "Tyrosine-protein kinase ABL1 (Homo sapiens), P00519 [Q252H]", "assay": "Inhibition of T7 bacteriophage fused human nonphosphorylated ABL1 Q252H mutant at 10 uM by KINOMEscan analysis relative to control"}, "[14]": {"target": "MAP/microtubule affinity-regulating kinase 4 (Homo sapiens) (UniProt Q96L34)", "assay": "Inhibition of T7 bacteriophage fused human MARK4 at 10 uM by KINOMEscan analysis relative to control; values are per cent of control"}, "[15]": {"target": "Aurora kinase B (Homo sapiens) (UniProt Q96GD4)", "assay": "Inhibition of T7 bacteriophage fused human AURKB at 10 uM by KINOMEscan analysis relative to control"}, "[16]": {"target": "Casein kinase I isoform gamma-1 (Homo sapiens) (UniProt Q9HCP0)", "sequence (Q9HCP0 whole entry, looked up, the tested form may be a part, canonical isoform)": "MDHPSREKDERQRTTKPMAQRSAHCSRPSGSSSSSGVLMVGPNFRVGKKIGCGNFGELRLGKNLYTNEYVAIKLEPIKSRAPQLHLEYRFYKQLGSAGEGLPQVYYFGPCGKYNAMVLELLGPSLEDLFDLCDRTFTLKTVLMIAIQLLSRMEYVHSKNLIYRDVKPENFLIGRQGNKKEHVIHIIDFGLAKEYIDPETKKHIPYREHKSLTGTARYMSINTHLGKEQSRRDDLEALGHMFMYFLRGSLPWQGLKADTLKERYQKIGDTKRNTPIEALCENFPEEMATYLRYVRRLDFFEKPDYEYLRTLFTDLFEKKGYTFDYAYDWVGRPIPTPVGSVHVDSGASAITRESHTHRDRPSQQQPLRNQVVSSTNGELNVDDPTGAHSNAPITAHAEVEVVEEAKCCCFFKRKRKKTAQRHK", "assay": "Inhibition of T7 bacteriophage fused human CSNK1G1 at 10 uM by KINOMEscan analysis relative to control"}, "[17]": {"target": "Serine/threonine-protein kinase DCLK2 (Homo sapiens) (UniProt Q8N568)", "assay": "Inhibition of T7 bacteriophage fused human DCAMKL2 at 10 uM by KINOMEscan analysis relative to control"}, "[18]": {"system": "Tyrosine-protein kinase ABL1 (Homo sapiens), P00519 [F317L]", "assay": "Inhibition of T7 bacteriophage fused human nonphosphorylated ABL1 F317L mutant at 10 uM by KINOMEscan analysis relative to control"}, "[19]": {"target": "Tyrosine-protein kinase JAK3 (Homo sapiens) (UniProt P52333)", "assay": "Inhibition of T7 bacteriophage fused human JAK3 JH1catalytic domain at 10 uM by KINOMEscan analysis relative to control"}, "[20]": {"target": "Glycogen synthase kinase-3 alpha (Homo sapiens) (UniProt P49840)", "assay": "Inhibition of T7 bacteriophage fused human GSK3A at 10 uM by KINOMEscan analysis relative to control"}, "[21]": {"target": "Mitogen-activated protein kinase 3 (Homo sapiens) (UniProt P27361)", "assay": "Inhibition of T7 bacteriophage fused human ERK1 at 10 uM by KINOMEscan analysis relative to control"}, "[22]": {"target": "Mitogen-activated protein kinase kinase kinase kinase 4 (Homo sapiens) (UniProt O95819)", "assay": "Inhibition of T7 bacteriophage fused human MAP4K4 at 10 uM by KINOMEscan analysis relative to control; values are per cent of control"}, "[23]": {"target": "Rhodopsin kinase GRK7 (Homo sapiens) (UniProt Q8WTQ7)", "sequence (Q8WTQ7 whole entry, the tested form may be a part)": "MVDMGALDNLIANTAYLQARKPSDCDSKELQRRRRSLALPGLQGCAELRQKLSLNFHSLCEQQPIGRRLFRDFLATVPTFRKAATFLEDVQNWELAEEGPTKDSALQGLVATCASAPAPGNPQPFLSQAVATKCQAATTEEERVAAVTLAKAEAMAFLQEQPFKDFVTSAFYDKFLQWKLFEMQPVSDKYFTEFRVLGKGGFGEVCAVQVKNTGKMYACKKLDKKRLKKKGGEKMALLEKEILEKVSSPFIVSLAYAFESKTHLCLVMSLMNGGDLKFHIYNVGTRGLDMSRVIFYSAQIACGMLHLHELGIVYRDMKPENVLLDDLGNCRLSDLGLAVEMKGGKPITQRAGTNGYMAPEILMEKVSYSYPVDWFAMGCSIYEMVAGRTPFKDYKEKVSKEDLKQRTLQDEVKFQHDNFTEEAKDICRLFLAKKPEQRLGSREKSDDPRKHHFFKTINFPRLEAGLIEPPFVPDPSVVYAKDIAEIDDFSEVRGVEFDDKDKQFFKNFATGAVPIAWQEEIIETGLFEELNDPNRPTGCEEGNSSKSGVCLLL", "assay": "Inhibition of T7 bacteriophage fused human GRK7 at 10 uM by KINOMEscan analysis relative to control"}, "[24]": {"target": "Serine/threonine-protein kinase ICK (Homo sapiens) (UniProt Q9UPZ9)", "sequence (Q9UPZ9 whole entry, the tested form may be a part)": "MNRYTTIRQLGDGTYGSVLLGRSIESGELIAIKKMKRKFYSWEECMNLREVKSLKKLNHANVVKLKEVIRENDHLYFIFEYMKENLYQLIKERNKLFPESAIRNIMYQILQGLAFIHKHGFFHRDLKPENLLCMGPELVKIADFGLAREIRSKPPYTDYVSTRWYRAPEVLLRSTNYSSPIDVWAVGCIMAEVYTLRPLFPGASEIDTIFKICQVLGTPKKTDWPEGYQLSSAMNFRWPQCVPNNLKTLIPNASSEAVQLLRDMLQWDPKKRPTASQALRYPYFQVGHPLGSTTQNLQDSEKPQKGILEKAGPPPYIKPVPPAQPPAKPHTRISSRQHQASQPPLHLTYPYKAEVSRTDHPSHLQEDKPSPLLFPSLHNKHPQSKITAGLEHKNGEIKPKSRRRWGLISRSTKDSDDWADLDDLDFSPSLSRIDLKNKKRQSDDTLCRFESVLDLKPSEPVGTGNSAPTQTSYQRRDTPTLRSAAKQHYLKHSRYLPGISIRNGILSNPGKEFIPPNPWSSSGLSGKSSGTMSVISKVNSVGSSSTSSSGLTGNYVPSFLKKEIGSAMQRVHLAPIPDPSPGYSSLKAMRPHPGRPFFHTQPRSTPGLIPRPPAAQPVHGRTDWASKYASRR", "assay": "Inhibition of T7 bacteriophage fused human ICK at 10 uM by KINOMEscan analysis relative to control; values are per cent of control"}, "[25]": {"target": "Casein kinase I isoform gamma-3 (Homo sapiens) (UniProt Q9Y6M4)", "assay": "Inhibition of T7 bacteriophage fused human CSNK1G3 at 10 uM by KINOMEscan analysis relative to control; values are per cent of control"}, "[26]": {"target": "Calcium/calmodulin-dependent protein kinase type II subunit beta (Homo sapiens) (UniProt Q13554)", "sequence (Q13554 whole entry, the tested form may be a part)": "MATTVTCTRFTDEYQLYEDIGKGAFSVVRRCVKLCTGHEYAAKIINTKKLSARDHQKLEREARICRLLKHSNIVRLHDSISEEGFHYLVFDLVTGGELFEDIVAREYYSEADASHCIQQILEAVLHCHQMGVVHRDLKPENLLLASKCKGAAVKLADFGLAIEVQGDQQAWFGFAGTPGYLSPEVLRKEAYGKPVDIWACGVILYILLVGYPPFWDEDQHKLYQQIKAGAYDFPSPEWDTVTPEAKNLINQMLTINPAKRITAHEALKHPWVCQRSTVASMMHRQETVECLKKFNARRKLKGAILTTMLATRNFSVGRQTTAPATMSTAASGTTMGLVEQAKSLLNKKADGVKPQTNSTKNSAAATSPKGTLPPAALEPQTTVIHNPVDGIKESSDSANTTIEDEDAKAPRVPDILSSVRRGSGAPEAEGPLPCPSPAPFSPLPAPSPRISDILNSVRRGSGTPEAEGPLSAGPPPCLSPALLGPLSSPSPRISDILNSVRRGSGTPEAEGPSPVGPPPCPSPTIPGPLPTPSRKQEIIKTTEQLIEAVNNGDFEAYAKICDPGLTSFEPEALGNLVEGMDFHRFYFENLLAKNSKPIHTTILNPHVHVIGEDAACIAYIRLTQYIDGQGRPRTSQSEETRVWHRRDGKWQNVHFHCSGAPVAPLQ", "assay": "Inhibition of T7 bacteriophage fused human CAMK2B at 10 uM by KINOMEscan analysis relative to control"}, "[27]": {"system": "Epidermal growth factor receptor (Homo sapiens), P00533 [G719C]", "assay": "Inhibition of T7 bacteriophage fused human EGFR G719C mutant at 10 uM by KINOMEscan analysis relative to control"}, "[28]": {"target": "Ribosomal protein S6 kinase alpha-1 (Homo sapiens) (UniProt Q15418)", "sequence (Q15418 whole entry, the tested form may be a part)": "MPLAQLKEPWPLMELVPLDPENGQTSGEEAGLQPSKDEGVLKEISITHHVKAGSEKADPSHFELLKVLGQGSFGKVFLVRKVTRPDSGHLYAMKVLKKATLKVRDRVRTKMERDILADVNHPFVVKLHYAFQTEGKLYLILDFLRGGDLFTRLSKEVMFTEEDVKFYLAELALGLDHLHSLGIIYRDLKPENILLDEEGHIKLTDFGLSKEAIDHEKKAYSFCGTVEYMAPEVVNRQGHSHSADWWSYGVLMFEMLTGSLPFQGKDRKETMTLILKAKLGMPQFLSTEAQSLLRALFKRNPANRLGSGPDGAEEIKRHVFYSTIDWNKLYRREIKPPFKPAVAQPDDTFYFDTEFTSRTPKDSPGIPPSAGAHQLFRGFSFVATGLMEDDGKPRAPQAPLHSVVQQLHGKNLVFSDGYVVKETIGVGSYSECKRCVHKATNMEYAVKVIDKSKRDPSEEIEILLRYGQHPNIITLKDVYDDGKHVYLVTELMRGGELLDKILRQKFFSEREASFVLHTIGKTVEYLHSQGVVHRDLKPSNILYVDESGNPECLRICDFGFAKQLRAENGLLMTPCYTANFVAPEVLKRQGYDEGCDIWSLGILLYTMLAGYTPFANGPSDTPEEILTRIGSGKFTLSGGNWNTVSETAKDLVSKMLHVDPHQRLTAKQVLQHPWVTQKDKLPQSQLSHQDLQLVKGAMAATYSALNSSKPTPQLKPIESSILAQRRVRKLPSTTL", "assay": "Inhibition of T7 bacteriophage fused human C-terminal RSK1 Kinase domain-2 at 10 uM by KINOMEscan analysis relative to control"}, "[29]": {"target": "Serine/threonine-protein kinase A-Raf (Homo sapiens) (UniProt P10398)", "sequence (P10398 whole entry)": "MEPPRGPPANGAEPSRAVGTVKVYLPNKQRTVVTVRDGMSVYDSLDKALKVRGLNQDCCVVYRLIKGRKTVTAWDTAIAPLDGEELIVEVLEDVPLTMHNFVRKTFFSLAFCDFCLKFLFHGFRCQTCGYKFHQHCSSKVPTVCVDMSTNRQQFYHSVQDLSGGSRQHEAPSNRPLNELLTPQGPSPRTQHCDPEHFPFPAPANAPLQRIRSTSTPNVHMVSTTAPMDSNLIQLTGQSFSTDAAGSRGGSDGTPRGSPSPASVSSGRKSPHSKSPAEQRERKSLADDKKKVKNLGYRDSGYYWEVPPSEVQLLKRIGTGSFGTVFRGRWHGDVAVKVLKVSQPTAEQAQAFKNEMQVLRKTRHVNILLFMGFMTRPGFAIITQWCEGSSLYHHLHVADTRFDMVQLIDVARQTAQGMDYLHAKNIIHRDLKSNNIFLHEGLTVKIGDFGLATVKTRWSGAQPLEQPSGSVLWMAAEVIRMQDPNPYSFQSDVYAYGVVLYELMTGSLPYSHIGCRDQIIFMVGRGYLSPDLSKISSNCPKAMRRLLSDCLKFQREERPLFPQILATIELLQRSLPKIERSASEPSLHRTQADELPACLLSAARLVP", "assay": "Inhibition of ARAF Lys2 labeling site in human HEL cell lysate at 10 uM by KiNativ profiling analysis relative to control", "format": "subcellular"}, "[30]": {"target": "Ribosomal protein S6 kinase alpha-1 (Homo sapiens) (UniProt Q15418)", "assay": "Inhibition of RSK1 domain1 Activation Loop labeling site in human HEL cell lysate at 10 uM by KiNativ profiling analysis relative to control", "format": "subcellular"}}, "data": [{"smiles": "COc1cc(N2CCC(N3CCN(C)CC3)CC2)ccc1Nc1ncc2c(n1)N(C)c1ccccc1C(=O)N2C", "values": [{"measurement": "inhibition", "setting": "[1]", "value": 100, "unit": "%"}, {"measurement": "residual activity", "setting": "[2]", "value": 79, "unit": "%"}, {"measurement": "residual activity", "setting": "[3]", "value": 77, "unit": "%"}, {"measurement": "inhibition", "setting": "[4]", "value": 81, "unit": "%"}, {"measurement": "inhibition", "setting": "[5]", "value": 89, "unit": "%"}, {"measurement": "inhibition", "setting": "[6]", "value": 100, "unit": "%"}, {"measurement": "inhibition", "setting": "[7]", "value": 54, "unit": "%"}, {"measurement": "inhibition", "setting": "[8]", "value": 88, "unit": "%"}, {"measurement": "inhibition", "setting": "[9]", "value": 100, "unit": "%"}, {"measurement": "inhibition", "setting": "[10]", "value": 0.7, "unit": "%"}, {"measurement": "residual activity", "setting": "[11]", "value": 87, "unit": "%"}, {"measurement": "inhibition", "setting": "[12]", "value": 100, "unit": "%"}, {"measurement": "inhibition", "setting": "[13]", "value": 100, "unit": "%"}, {"measurement": "residual activity", "setting": "[14]", "value": 78, "unit": "%"}, {"measurement": "inhibition", "setting": "[15]", "value": 38, "unit": "%"}, {"measurement": "inhibition", "setting": "[16]", "value": 100, "unit": "%"}, {"measurement": "inhibition", "setting": "[17]", "value": 0.45, "unit": "%"}, {"measurement": "inhibition", "setting": "[18]", "value": 14, "unit": "%"}, {"measurement": "inhibition", "setting": "[19]", "value": 100, "unit": "%"}, {"measurement": "inhibition", "setting": "[20]", "value": 100, "unit": "%"}, {"measurement": "inhibition", "setting": "[21]", "value": 100, "unit": "%"}, {"measurement": "residual activity", "setting": "[22]", "value": 85, "unit": "%"}, {"measurement": "inhibition", "setting": "[23]", "value": 100, "unit": "%"}, {"measurement": "residual activity", "setting": "[24]", "value": 90, "unit": "%"}, {"measurement": "residual activity", "setting": "[25]", "value": 93, "unit": "%"}, {"measurement": "inhibition", "setting": "[26]", "value": 62, "unit": "%"}, {"measurement": "inhibition", "setting": "[27]", "value": 100, "unit": "%"}, {"measurement": "inhibition", "setting": "[28]", "value": 10, "unit": "%"}]}, {"smiles": "COc1cc(C(=O)N2CCC(N3CCN(C)CC3)CC2)ccc1Nc1ncc2c(n1)N(C1CCCC1)c1ccccc1C(=O)N2C", "values": [{"measurement": "inhibition", "setting": "[29]", "value": -0.7, "unit": "%"}, {"measurement": "inhibition", "setting": "[30]", "value": 0.2, "unit": "%"}]}]}
